The text below walks through data of US20150080438A1, “6,7-Dihydro-5H-benzo[7]annulene derivatives, processes for their preparation, pharmaceutical products comprising them and their use for preparing medicaments” (Bayer Intellectual Property GmbH, priority 2011, published 2015).

This test concerns the target T1, oestrogen receptor (ER) (Homo sapiens, UniProt P03372).
T1 construct: These MVLN cells express, along with the functional oestrogen receptor (ER), a reporter construct; endogenous in cells; host or cells: MVLN cells (MCF7 derivative with ER-responsive luciferase reporter)
T1 sequence (P03372 1-595): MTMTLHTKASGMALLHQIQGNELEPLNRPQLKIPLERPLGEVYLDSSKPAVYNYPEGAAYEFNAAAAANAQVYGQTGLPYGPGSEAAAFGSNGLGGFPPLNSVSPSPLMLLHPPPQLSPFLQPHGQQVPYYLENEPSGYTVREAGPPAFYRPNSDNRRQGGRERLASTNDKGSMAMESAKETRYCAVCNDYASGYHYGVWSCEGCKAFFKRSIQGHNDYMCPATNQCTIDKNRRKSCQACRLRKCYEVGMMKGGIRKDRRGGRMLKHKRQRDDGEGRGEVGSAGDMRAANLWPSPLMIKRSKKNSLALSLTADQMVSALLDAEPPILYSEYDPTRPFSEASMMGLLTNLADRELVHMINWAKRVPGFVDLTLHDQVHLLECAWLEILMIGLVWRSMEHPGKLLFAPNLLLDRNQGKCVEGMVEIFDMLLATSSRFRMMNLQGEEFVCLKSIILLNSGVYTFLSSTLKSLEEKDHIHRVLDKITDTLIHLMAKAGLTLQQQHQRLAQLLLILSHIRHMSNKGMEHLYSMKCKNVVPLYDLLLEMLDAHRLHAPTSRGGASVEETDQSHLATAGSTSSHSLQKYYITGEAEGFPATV
Kind of test: Anti-oestrogenic action in MVLN cells (inhibition of estradiol-induced luciferase, transactivation antagonism). The class given is cell-based. As to conditions: inhibition of estradiol-induced luciferase activity, read-out: Anti-oestrogenic action in vitro: MVLN transactivation antagonism IC50. The text has this: The anti-oestrogenic action of the claimed pharmacological compounds was investigated in so-called MVLN cells in vitro. MVLN cells are derivatives of the hormone-responsive MCF7 breast cancer cells known by a person skilled in the art. These MVLN cells express, along with the functional oestrogen receptor (ER), a reporter construct, which under ER-activation expresses luciferase. Determination of the activity of the induced luciferase permits a direct conclusion on the oestrogen properties of substances. To investigate the anti-oestrogenic properties of the pharmacological compounds, they were investigated in the presence of oestrogen for their potential for inhibiting the luciferase signal induced by estradiol.
The claimed pharmacological test substances were investigated in MVLN cells for their anti-oestrogenic potential, as described (see Table 2).

The structures appear in SMILES notation.

In the case of `CC(C)(O)CN(CCCCCCC1=C(c2ccc(F)c(O)c2)CCCc2cc(O)c(F)cc21)CCC[S+]([O-])CCC(F)(F)F` (racemic) [Example 129, 2-Fluoro-8-(4-fluoro-3-hydroxyphenyl)-9-{6-[(2-hydroxy-2-methylpropyl){3-[(RS)-(3,3,3-trifluoropropyl)sulphinyl]propyl}amino]hexyl}-6,7-dihydro-5H-benzo[7]annulen-3-ol], the IC50 (commonly the point on the concentration scale where inhibition reaches its midpoint) is 4 nM.

With `CN(CCCCCCC1=C(c2ccc(F)c(O)c2)CCCc2cc(O)c(F)cc21)CCC[S+]([O-])CCCC(F)(F)C(F)(F)F` (racemic) [Example 130, 2-Fluoro-8-(4-fluoro-3-hydroxyphenyl)-9-[6-(methyl{3-[(RS)-(4,4,5,5,5-pentafluoropentyl)sulphinyl]propyl}amino)hexyl]-6,7-dihydro-5H-benzo[7]annulen-3-ol], the IC50 was determined as 5 nM.

As for `COCCN(CCCCCCC1=C(c2ccc(F)c(O)c2)CCCc2cc(O)c(F)cc21)CCC[S+]([O-])CCCC(F)(F)C(F)(F)F` (racemic) [Example 131, 2-Fluoro-8-(4-fluoro-3-hydroxyphenyl)-9-{6-[(2-methoxyethyl){3-[(RS)-(4,4,5,5,5-pentafluoropentyl)sulphinyl]propyl}amino]hexyl}-6,7-dihydro-5H-benzo[7]annulen-3-ol], the IC50 is 2 nM.

Consider `COCCCN(CCCCCCC1=C(c2ccc(F)c(O)c2)CCCc2cc(O)c(F)cc21)CCC[S+]([O-])CCCC(F)(F)C(F)(F)F` (racemic) [Example 132, 2-Fluoro-8-(4-fluoro-3-hydroxyphenyl)-9-{6-[(3-methoxypropyl){3-[(RS)-(4,4,5,5,5-pentafluoropentyl)sulphinyl]propyl}amino]hexyl}-6,7-dihydro-5H-benzo[7]annulen-3-ol], for which the half-inhibitory concentration (IC50) was determined as 5 nM.

Regarding `CN(CCCCCC1=C(c2cccc(O)c2)CCCc2cc(O)ccc21)CCCS(=O)(=O)CCCC(F)(F)C(F)(F)F` [Example 5, 8-(3-Hydroxyphenyl)-9-[5-(methyl{3-[(4,4,5,5,5-pentafluoropentyl)sulphonyl]propyl}amino)pentyl]-6,7-dihydro-5H-benzo[7]annulen-3-ol], the IC50 was determined as 5 nM.

For `CN(CCCCCC1=C(c2cccc(O)c2)CCCc2cc(O)ccc21)CCCCCS(=O)(=O)CCCC(F)(F)C(F)(F)F` [Example 9, 8-(3-Hydroxyphenyl)-9-[5-(methyl{5-[(4,4,5,5,5-pentafluoropentyl)sulphonyl]pentyl}amino)pentyl]-6,7-dihydro-5H-benzo[7]annulen-3-ol], the half-maximal inhibitory concentration (IC50) was 8 nM.

For `CN(CCCCCCS(=O)(=O)CCCC(F)(F)C(F)(F)F)CCCCCC1=C(c2cccc(O)c2)CCCc2cc(O)ccc21` [Example 11, 8-(3-Hydroxyphenyl)-9-[5-(methyl{6-[(4,4,5,5,5-pentafluoropentyl)sulphonyl]hexyl}amino)pentyl]-6,7-dihydro-5H-benzo[7]annulen-3-ol], the IC50 came to 4 nM.

Regarding `CN(CCCCCCC1=C(c2cccc(O)c2)CCCc2cc(O)ccc21)CCCCS(=O)(=O)CCCC(F)(F)C(F)(F)F` [Example 15, 8-(3-Hydroxyphenyl)-9-[6-(methyl{4-[(4,4,5,5,5-pentafluoropentyl)sulphonyl]butyl}amino)hexyl]-6,7-dihydro-5H-benzo[7]annulen-3-ol], the IC50 is 3 nM.

Turning to `CN(CCCCCCC1=C(c2cccc(O)c2)CCCc2cc(O)ccc21)CCCCCS(=O)(=O)CCCC(F)(F)C(F)(F)F` [Example 17, 8-(3-Hydroxyphenyl)-9-[6-(methyl{5-[(4,4,5,5,5-pentafluoropentyl)sulphonyl]pentyl}amino)hexyl]-6,7-dihydro-5H-benzo[7]annulen-3-ol], the IC50 worked out at 4 nM.

As for `CN(CCCCCCC1=C(c2ccc(C#N)cc2)CCCc2cc(O)ccc21)CCCS(=O)(=O)CCCC(F)(F)C(F)(F)F` [Example 22, 4-{3-Hydroxy-9-[6-(methyl{3-[(4,4,5,5,5-pentafluoropentyl)sulphonyl]propyl}amino)hexyl]-6,7-dihydro-5H-benzo[7]annulen-8-yl}benzonitrile], the IC50 was determined as 17 nM.

Turning to `CN(CCCCCC1=C(c2ccc(F)c(O)c2)CCCc2cc(O)ccc21)CCCCS(=O)(=O)CCCC(F)(F)C(F)(F)F` [Example 25, 8-(4-Fluoro-3-hydroxyphenyl)-9-[5-(methyl{4-[(4,4,5,5,5-pentafluoropentyl)sulphonyl]butyl}amino)pentyl]-6,7-dihydro-5H-benzo[7]annulen-3-ol], the IC50 worked out at 24 nM.

On to `CN(CCCCCCC1=C(c2ccc(F)c(O)c2)CCCc2cc(O)ccc21)CCCCS(=O)(=O)CCCC(F)(F)C(F)(F)F` [Example 31, 8-(4-Fluoro-3-hydroxyphenyl)-9-[6-(methyl{4-[(4,4,5,5,5-pentafluoropentyl)sulphonyl]butyl}amino)hexyl]-6,7-dihydro-5H-benzo[7]annulen-3-ol], for which the IC50 was determined as 3 nM.

With `CN(CCCCCCC1=C(c2ccc(F)c(O)c2)CCCc2cc(O)ccc21)CCCCCS(=O)(=O)CCCC(F)(F)C(F)(F)F` [Example 33, 8-(4-Fluoro-3-hydroxyphenyl)-9-[6-(methyl{5-[(4,4,5,5,5-pentafluoropentyl)sulphonyl]pentyl}amino)hexyl]-6,7-dihydro-5H-benzo[7]annulen-3-ol], the IC50 came to 6 nM.

`CN(CCCCCCC1=C(c2ccc(F)c(O)c2)CCCc2cc(O)ccc21)CCCCCCS(=O)(=O)CCCC(F)(F)C(F)(F)F` [Example 35, 8-(4-Fluoro-3-hydroxyphenyl)-9-[6-(methyl{6-[(4,4,5,5,5-pentafluoropentyl)sulphonyl]hexyl}amino)hexyl]-6,7-dihydro-5H-benzo[7]annulen-3-ol]: the IC50 came out at 11 nM.

As to `CN(CCCCCC1=C(c2ccc(O)c(F)c2)CCCc2cc(O)ccc21)CCCSCCCC(F)(F)C(F)(F)F` [Example 36, 8-(3-Fluoro-4-hydroxyphenyl)-9-[5-(methyl{3-[(4,4,5,5,5-pentafluoropentyl)sulphanyl]propyl}amino)pentyl]-6,7-dihydro-5H-benzo[7]annulen-3-ol], the IC50 was 3 nM.

As to `CN(CCCCCC1=C(c2cccnc2)CCCc2cc(O)ccc21)CCCSCCCC(F)(F)C(F)(F)F` [Example 39, 9-[5-(Methyl{3-[(4,4,5,5,5-pentafluoropentyl)sulphanyl]propyl}amino)pentyl]-8-(3-pyridyl)-6,7-dihydro-5H-benzo[7]annulen-3-ol], the IC50 was determined as 146 nM.

In the case of `CN(CCCCCC1=C(c2cccnc2)CCCc2cc(O)ccc21)CCCS(=O)(=O)CCCC(F)(F)C(F)(F)F` [Example 41, 9-[5-(Methyl{3-[(4,4,5,5,5-pentafluoropentyl)sulphonyl]propyl}amino)pentyl]-8-(3-pyridyl)-6,7-dihydro-5H-benzo[7]annulen-3-ol], the IC50 turned out to be 110 nM.

With `CN(CCCCCCC1=C(c2cccnc2)CCCc2cc(O)ccc21)CCCSCCCC(F)(F)C(F)(F)F` [Example 42, 9-[6-(Methyl{3-[(4,4,5,5,5-pentafluoropentyl)sulphanyl]propyl}amino)hexyl]-8-(3-pyridyl)-6,7-dihydro-5H-benzo[7]annulen-3-ol], the IC50 amounted to 7 nM.

Turning to `CN(CCCCCC1=C(c2ccc(S(C)(=O)=O)cc2)CCCc2cc(O)ccc21)CCCSCCCC(F)(F)C(F)(F)F` [Example 45, 8-(4-Mesylphenyl)-9-[5-(methyl{3-[(4,4,5,5,5-pentafluoropentyl)sulphanyl]propyl}amino)pentyl]-6,7-dihydro-5H-benzo[7]annulen-3-ol], the IC50 was found to be 65 nM.

For `CN(CCCCCC1=C(c2ccc(S(C)(=O)=O)cc2)CCCc2cc(O)ccc21)CCCS(=O)(=O)CCCC(F)(F)C(F)(F)F` [Example 47, 8-(4-Mesylphenyl)-9-[5-(methyl{3-[(4,4,5,5,5-pentafluoropentyl)sulphonyl]propyl}amino)pentyl]-6,7-dihydro-5H-benzo[7]annulen-3-ol], the IC50 was 34 nM.

On to `CN(CCCCCCC1=C(c2cccc(O)c2)CCCc2cc(O)ccc21)CCCCS(=O)(=O)CCCC(F)(F)F` [Example 52, 8-(3-Hydroxyphenyl)-9-[6-(methyl{4-[(4,4,4-trifluorobutyl)sulphonyl]butyl}amino)hexyl]-6,7-dihydro-5H-benzo[7]annulen-3-ol], for which the IC50 stood at 1 nM.

Turning to `CN(CCCCCCC1=C(c2cccc(O)c2)CCCc2cc(O)ccc21)CCCS(=O)(=O)CCC(F)(F)C(F)(F)F` [Example 54, 8-(3-Hydroxyphenyl)-9-[6-(methyl{3-[(3,3,4,4,4-pentafluorobutyl)sulphonyl]propyl}amino)hexyl]-6,7-dihydro-5H-benzo[7]annulen-3-ol], the IC50 was determined as 2 nM.

Consider `CN(CCCCCCC1=C(c2ccccc2)CCCc2cc(O)ccc21)CCCS(=O)(=O)CCCC(F)(F)F` [Example 57, 9-[6-(Methyl{3-[(4,4,4-trifluorobutyl)sulphonyl]propyl}amino)hexyl]-8-phenyl-6,7-dihydro-5H-benzo[7]annulen-3-ol], for which the IC50 was determined as 5 nM.
